Measured values as given in the supplement of paper PMC10307832.

Tests used:
Test in all cases: relative viability (nuclei count vs DMSO), 5 days (fraction); higher = more cells survive
[1] = compound: C1=CC2=NC=CN=C2C=C1/C=C/3\C(=O)NC(=O)S3 + CC(C)C[C@H](NC(=O)[C@H](Cc1ccccc1)NC(=O)c1cnccn1)B(O)O [Bortezomib] (partner 0.002 µM)
In short: (§1)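 A single step with final 0.05% Triton X-100, 1% formaldehyde and 1 ug/ml Hoechst fixed the cells and stained nuclei 5 days after treatment. Lung cancer cell lines in 1536-well plates had been treated by pin tool the day after seeding with one drug alone or a fixed anchor-drug dose plus five library-drug doses (not always all listed) in √10 steps, and nuclei were counted on 4× images. Relative viability is the ratio of nuclei in treated wells to nuclei in vehicle wells, taken as the median of duplicate plates.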

[2] = compound: C1=CC2=NC=CN=C2C=C1/C=C/3\C(=O)NC(=O)S3 + Nc1ncn([C@H]2C[C@H](O)[C@@H](CO)O2)c(=O)n1 [Decitabine] (partner 2 µM)
In short: as §1

[3] = compound: CCN1CCN(c2ccc(Nc3cc(N(C)C(=O)Nc4c(Cl)c(OC)cc(OC)c4Cl)ncn3)cc2)CC1 [BGJ398] + CCNC(=O)c1noc(-c2cc(C(C)C)c(O)cc2O)c1-c1ccc(CN2CCOCC2)cc1 [Luminespib] (partner 0.01 µM)
In short: as §1

[4] = compound: CCN1CCN(c2ccc(Nc3cc(N(C)C(=O)Nc4c(Cl)c(OC)cc(OC)c4Cl)ncn3)cc2)CC1 [BGJ398] + Cc1nc(Nc2ncc(C(=O)Nc3c(C)cccc3Cl)s2)cc(N2CCN(CCO)CC2)n1 [Dasatinib] (partner 0.075 µM)
In short: as §1

Cell Line: HCC-44
- relative viability ([1]; first compound 0.02 µM): 0.818
- relative viability ([1]; first compound 0.06325 µM): 0.958
- relative viability ([1]; first compound 0.2 µM): 0.869
- relative viability ([1]; first compound 0.6325 µM): 0.883
- relative viability ([1]; first compound 2 µM): 0.71
- relative viability ([2]; first compound 0.02 µM): 0.872
- relative viability ([2]; first compound 0.06325 µM): 1.07
- relative viability ([2]; first compound 0.2 µM): 0.942
- relative viability ([2]; first compound 0.6325 µM): 0.961
- relative viability ([2]; first compound 2 µM): 0.843
- relative viability ([3]; first compound 0.01 µM): 0.974
- relative viability ([3]; first compound 0.03162 µM): 1.11
- relative viability ([3]; first compound 0.1 µM): 1.32
- relative viability ([3]; first compound 0.3162 µM): 1.09
- relative viability ([3]; first compound 1 µM): 0.942

Cell Line: HCC-78
- relative viability ([4]; first compound 0.01 µM): 0.385
- relative viability ([4]; first compound 0.03162 µM): 0.375
- relative viability ([4]; first compound 0.1 µM): 0.34
- relative viability ([4]; first compound 0.3162 µM): 0.388
- relative viability ([4]; first compound 1 µM): 0.362
- relative viability ([1]; first compound 0.02 µM): 0.497
- relative viability ([1]; first compound 0.06325 µM): 0.378
- relative viability ([1]; first compound 0.2 µM): 0.588
- relative viability ([1]; first compound 0.6325 µM): 0.346
- relative viability ([1]; first compound 2 µM): 0.275
- relative viability ([2]; first compound 0.02 µM): 0.703
- relative viability ([2]; first compound 0.06325 µM): 0.578
- relative viability ([2]; first compound 0.2 µM): 0.668
- relative viability ([2]; first compound 0.6325 µM): 0.594
- relative viability ([2]; first compound 2 µM): 0.525

Cell Line: HCC-366
- relative viability ([4]; first compound 0.01 µM): 0.626
- relative viability ([4]; first compound 0.03162 µM): 0.681
- relative viability ([4]; first compound 0.1 µM): 0.793
- relative viability ([4]; first compound 0.3162 µM): 0.6
- relative viability ([4]; first compound 1 µM): 0.558
- relative viability ([1]; first compound 0.02 µM): 1
- relative viability ([1]; first compound 0.06325 µM): 1.02
- relative viability ([1]; first compound 0.2 µM): 1.05
- relative viability ([1]; first compound 0.6325 µM): 1.06
- relative viability ([1]; first compound 2 µM): 1.01
- relative viability ([2]; first compound 0.02 µM): 0.284
- relative viability ([2]; first compound 0.2 µM): 0.386
- relative viability ([2]; first compound 0.6325 µM): 0.306
- relative viability ([2]; first compound 2 µM): 0.276

Cell Line: IA-LM
- relative viability ([1]; first compound 0.02 µM): 0.654
- relative viability ([1]; first compound 0.06325 µM): 0.918
- relative viability ([1]; first compound 0.2 µM): 0.865
- relative viability ([1]; first compound 0.6325 µM): 0.788
- relative viability ([1]; first compound 2 µM): 0.728

Cell Line: LK-2
- relative viability ([4]; first compound 0.01 µM): 0.286
- relative viability ([4]; first compound 0.03162 µM): 0.248
- relative viability ([4]; first compound 0.1 µM): 0.163
- relative viability ([4]; first compound 0.3162 µM): 0.203
- relative viability ([4]; first compound 1 µM): 0.179
- relative viability ([2]; first compound 0.02 µM): 0.285
- relative viability ([2]; first compound 0.06325 µM): 0.291
- relative viability ([2]; first compound 0.2 µM): 0.452
- relative viability ([2]; first compound 0.6325 µM): 0.279
- relative viability ([2]; first compound 2 µM): 0.154
- relative viability ([3]; first compound 0.01 µM): 0.18
- relative viability ([3]; first compound 0.03162 µM): 0.16
- relative viability ([3]; first compound 0.1 µM): 0.169
- relative viability ([3]; first compound 0.3162 µM): 0.177
- relative viability ([3]; first compound 1 µM): 0.172

Cell Line: NCI-H358
- relative viability ([4]; first compound 0.01 µM): 0.145
- relative viability ([4]; first compound 0.03162 µM): 0.154
- relative viability ([4]; first compound 0.1 µM): 0.135
- relative viability ([4]; first compound 0.3162 µM): 0.169
- relative viability ([4]; first compound 1 µM): 0.205
- relative viability ([2]; first compound 0.02 µM): 0.227
- relative viability ([2]; first compound 0.06325 µM): 0.22
- relative viability ([2]; first compound 0.2 µM): 0.221
- relative viability ([2]; first compound 0.6325 µM): 0.268
- relative viability ([2]; first compound 2 µM): 0.182
- relative viability ([3]; first compound 0.01 µM): 0.449
- relative viability ([3]; first compound 0.03162 µM): 0.268
- relative viability ([3]; first compound 0.1 µM): 0.394
- relative viability ([3]; first compound 0.3162 µM): 0.372
- relative viability ([3]; first compound 1 µM): 0.289

Cell Line: NCI-H522
- relative viability ([4]; first compound 0.01 µM): 0.641
- relative viability ([4]; first compound 0.03162 µM): 0.837
- relative viability ([4]; first compound 0.1 µM): 0.785
- relative viability ([4]; first compound 0.3162 µM): 0.779
- relative viability ([4]; first compound 1 µM): 0.76
- relative viability ([2]; first compound 0.02 µM): 0.643
- relative viability ([2]; first compound 0.06325 µM): 0.706
- relative viability ([2]; first compound 0.2 µM): 0.594
- relative viability ([2]; first compound 0.6325 µM): 0.74
- relative viability ([2]; first compound 2 µM): 0.683
- relative viability ([3]; first compound 0.01 µM): 1.21
- relative viability ([3]; first compound 0.03162 µM): 1.4
- relative viability ([3]; first compound 0.1 µM): 1.09
- relative viability ([3]; first compound 0.3162 µM): 0.99
- relative viability ([3]; first compound 1 µM): 1.04

Cell Line: NCI-H1299
- relative viability ([1]; first compound 0.02 µM): 1.04
- relative viability ([1]; first compound 0.06325 µM): 1.04
- relative viability ([1]; first compound 0.2 µM): 1.04
- relative viability ([1]; first compound 0.6325 µM): 1.03
- relative viability ([1]; first compound 2 µM): 1.06

Cell Line: NCI-H1395
- relative viability ([4]; first compound 0.01 µM): 0.41
- relative viability ([4]; first compound 0.03162 µM): 0.397
- relative viability ([4]; first compound 0.1 µM): 0.363
- relative viability ([4]; first compound 0.3162 µM): 0.379
- relative viability ([4]; first compound 1 µM): 0.313
- relative viability ([2]; first compound 0.02 µM): 0.637
- relative viability ([2]; first compound 0.06325 µM): 0.693
- relative viability ([2]; first compound 0.2 µM): 0.74
- relative viability ([2]; first compound 0.6325 µM): 0.703
- relative viability ([2]; first compound 2 µM): 0.651
- relative viability ([3]; first compound 0.01 µM): 0.63
- relative viability ([3]; first compound 0.03162 µM): 0.661
- relative viability ([3]; first compound 0.1 µM): 0.665
- relative viability ([3]; first compound 0.3162 µM): 0.557
- relative viability ([3]; first compound 1 µM): 0.415

Cell Line: NCI-H1563
- relative viability ([4]; first compound 0.01 µM): 0.461
- relative viability ([4]; first compound 0.03162 µM): 0.491
- relative viability ([4]; first compound 0.1 µM): 0.432
- relative viability ([4]; first compound 0.3162 µM): 0.391
- relative viability ([4]; first compound 1 µM): 0.329
- relative viability ([1]; first compound 0.02 µM): 0.828
- relative viability ([1]; first compound 0.06325 µM): 0.788
- relative viability ([1]; first compound 0.2 µM): 0.871
- relative viability ([1]; first compound 0.6325 µM): 0.753
- relative viability ([1]; first compound 2 µM): 0.715
- relative viability ([3]; first compound 0.01 µM): 0.492
- relative viability ([3]; first compound 0.03162 µM): 0.525
- relative viability ([3]; first compound 0.1 µM): 0.499
- relative viability ([3]; first compound 0.3162 µM): 0.556
- relative viability ([3]; first compound 1 µM): 0.544
